Data as given in a melting point compilation (Tetko et al.; mined from patent text by program, amines drawn as free bases though some values may be those of a salt).

| SMILES | melting point [°C] |
| --- | --- |
| CCCCCCCCCCCCNC(=O)COc1ccc(OC(=O)c2ccccc2)cc1[N+](=O)[O-] | 110 to 111 |
| COc1cccc(S(=O)(=O)NC(C)(C)C)c1 | 100 |
| COC(=O)c1cc(SCc2ccccc2)c(Cc2ccccc2)c(S(N)(=O)=O)c1 | 139 to 140 |
| O=C(Nc1c(Cl)cnn1-c1c(F)c(F)c(C(F)(F)F)c(F)c1F)C(Cl)Cl | 115 to 116 |
| CCC(CCSc1cc(OC)c(O)c(OC)c1)(c1cccs1)N(C)C (centres undefined) | 78 to 80 |
| ON=Cc1ccc(-c2ccc(O)c(F)c2)c2ccccc12 | 187 to 188 |
| NC(=O)c1cccc(OCc2cccc(O)c2)c1 | 122 to 123 |
| CCN(CC)CCOc1ccc2cc3ccc(OCCN(CC)CC)c(CO)c3nc2c1CO | 95 to 96 |
| Cc1nc(Nc2ccccc2)sc1-c1ccc(Cl)c([N+](=O)[O-])c1 | 162 to 165 |
| CCOC(=O)COc1ccc(NC(=O)c2csc(NC(=N)N)n2)cc1 | 206 |
| CCOC(=O)C(=O)Nc1nnc2c3c(c(N4CCCCC4)nn12)CCCC3 | 168 to 169 |
| CCOC(=O)C(=O)Nc1ccc2c(=O)n3c(nc2c1)C(=Cc1cccc(OC)c1OCC)CC3 | 174 to 177 |
| N#Cc1ccc(OCCCCCOc2cccc(-c3cc4cc(C#N)ccc4o3)c2)cc1 | 142 to 145 |
| CCc1cccc2c(C(=O)OC)cnnc12 | 59 to 60 |
| CC(C)(C)c1cc(SCO)cc(C(C)(C)C)c1O | 79 to 82 |
| CCCc1nn(C)c2c(=O)n(CCOc3cccc(OC(C)(C)C(=O)O)c3)c(C)nc12 | 140 to 142 |
| O=C(c1ccccc1)c1ccc(OCC(O)COCCCCCCCCOCC(O)COc2ccc(C(=O)c3ccccc3)c(O)c2)cc1O (centres undefined) | 74 |
| CC1(C)OC(CCN)CC(CC(=O)O)O1 (centres undefined) | 165 |
| CCOC(=O)Cc1cc(C)c(C(=O)c2ccc(Cl)c(Cl)c2)n1C | 92 to 93.5 |
| CCOC(=O)Cc1ccc(NC(=O)C(COc2cccc(Cl)c2)NS(=O)(=O)c2ccc(F)cc2)cc1 (racemic) | 164 to 165 |
| CCC(=NOCCO)c1ccc(-c2ccccc2)cc1 | 76 |
| CC(C)(C)C(=O)COc1ccc(Cl)cc1 | 58 |
| CCn1ncc2c(NCc3cccc(O)c3)c3ccccc3nc21 | > 240 |
| C#CC(C)(C)CCOc1ccc(Cl)cc1 | 42 to 45 |
| CC(=O)NNc1nc(C(F)(F)F)nc(-c2ccc(S(C)(=O)=O)cc2)c1-c1ccc(Cl)cc1 | 254 to 256 |

| SMILES | melting point [°C] |
| --- | --- |
| O=c1ccn(C2C=CC(COC(c3ccccc3)(c3ccccc3)c3ccccc3)O2)c(=O)[nH]1 (centres undefined) | 188 to 191 |
| COc1ccc(CC2C(=O)N(Cc3ccccc3)c3ccccc3NC2C)cc1 (centres undefined) | 136 to 137 |
| Cn1c(CO)nnc1NCCCCOc1cccc(CN2CCCCC2)c1 | 128 to 130 |
| COC(=O)C1(CCCN2CCN(c3ccccc3)CC2)Sc2ccccc2CCC1=O (centres undefined) | 101 to 103 |
| Cc1cc(Cl)ccc1NC(=O)c1cccc(S(=O)(=O)N(C)c2ccc(Br)cc2)c1 | 163 to 164 |
| CCc1cccc(C)c1S(=O)(=O)c1nn(C(=O)N(CC)CC)cc1C#N | 101 to 102 |
| COC(=O)c1cc(-c2c[nH]nc2-c2ccc(F)cc2)ccn1 | 239 to 241 |
| COc1ccc(C(=O)Nc2cc(NC(=O)c3cccc(N4CCOCC4)c3)ccc2Cl)cc1OC | 148 |
| CNC(=O)c1ccc(N2CCN(c3ccncc3)CC2)cc1 | 239 to 242 |
| O=C(Nc1ccc(CN2C(=O)[C@H]3CCC[C@H]3Nc3ccccc32)cc1)OCc1ccccc1 (relative stereo) | 162 |
| COc1cccc(CNC(=O)C(C)(C)COc2cccc3nc(C)c(C(=O)O)c(N)c23)c1 | 172 to 174 |
| CCOC(=O)c1c(N2CCN(C=O)CC2)c2cc(C)ccc2n(-c2ccccc2)c1=O | 240 |
| O=C(O)c1cccc2c1CCc1cc(F)ccc1S2 | 200 to 202 |
| CC(=O)N[C@@H](CCC(N)=O)C(=O)NC1(C(=O)NCCCCNC(N)=NC#N)Cc2ccccc2C1 | 122 to 133 |
| Cn1cc(C2=C(c3c4n(c5ccccc35)CC(NC(=O)OC(C)(C)C)CC4)C(=O)NC2=O)c2ccccc21 (centres undefined) | 159 to 163 |
| CC(C)[C@H]1C(=O)OCN1C(=O)OCc1ccccc1 | 54 to 55 |
| CCOC(=O)C(=O)c1oc(=O)[nH]c1-c1ccc(Cl)cc1 | 152 to 153 |
| CCOC(=O)COc1nnc(-c2ccc3c(c2)CCO3)o1 | 103 to 104 |
| COc1ccc2c(c1)c(Cc1nc(-c3ccc4ccccc4c3)cs1)c(C)n2C(=O)c1ccc(Cl)cc1 | 131 to 133 |
| Cc1ccccc1-c1cc(F)c2c(c1)CC(CN)O2 (centres undefined) | > 250 |
| O=c1c2c(Cc3ccccc3)n[nH]c2c2cnccc2n1-c1ccccc1 | 284 to 287 |
| N#CC1=C(C2=CCNCC2)Nc2n[nH]cc2C1c1cccc2nonc12 (centres undefined) | 180 |
| CS(=O)(=O)Oc1ccc(Oc2ccccc2)cc1CC(=O)O | 121 |
| CCC(CC)C(=C(C#N)c1nc[nH]n1)S(=O)(=O)c1ccc(C)cc1 | 78 to 87 |
